Results on 15 compounds are retold here after patent US8343953B2, “Pharmaceutical compounds” (Astex Therapeutics Limited, priority 2005, dated 2013).

The target in one experiment is T1, P70S6 kinase (T412E) (Homo sapiens, UniProt P23443, T412E).
T1 construct: purchased Upstate 14-486
The experiment in a line: P70s6 radiometric assay. It counts as biochemical. Conditions: ATP approximately 15 μM; enzyme 2 nM; read-out: IC50 (anti-P70S6K activity). As to the method:
P7086 enzyme is bought from Upstate and used at 2 nM in the assay.
In the phosphoryl transfer reaction, the ^33P-γ phosphate from ATP is transferred to the serine residue. The reaction mixture is transferred to a phosphocellulose filter plate where the peptide binds and the unused ATP is washed away. After washing, scintillant is added and the incorporated activity measured by scintillation counting.
S6 kinase substrate cocktail from Upstate (#20-122)
• 10 mM MOPS pH 7.0 • 0.1 mg/ml BSA • 0.001% Brij-35 • 0.5% glycerol • 0.2 mM EDTA • 10 mM MgCl2 • 0.01% β-mercaptoethanol • Made as a 10× stock, stored at […] in 2 ml aliquots • 15 μM ATP
ATP will break down over time, keep on ice as far as possible and use small aliquots to ensure the stock is fresh. • γ^33P-ATP APBiotech (BF1000) • 12.5% orthophosphoric acid • 0.5% orthophosphoric acid • Microscint 20 (Packard) Assay Preparation • Enzyme mix (per 1 ml—100 assay points): • 743.75 μl H2O • […] • 3.75 μl 10 mM ATP • 2.5 μl enzyme • Substrate mix (per 1 ml—100 assay points): • 250 μl S6 cocktail substrate • 750 μl H2O • 3.5 μl ^33P-ATP (BF1000 from APBiotech)
Compounds—prepare a dilution curve in DMSO in a polypropylene 96 well plate to 40× final assay concentration (final DMSO 2.5%).
In a polypropylene 96 well plate add in order: • 5 μl compound • 10 μl substrate mix • 10 μl enzyme mix
Final ATP concentration is approximately 15 μM. KM for ATP calculated to 47 uM radiometrically. Controls are “no compound” (DMSO only) and “no enzyme” (use 10 μl of the enzyme mix prior to adding enzyme). Cover with a plate seal (TopSeal A—Packard) or plastic lid from filter plate (moderate radiation barrier). Mix by gentle shaking. Incubate at room temperature for 50 minutes. Stop the reaction by adding 20 μl of 2% orthophosphoric acid.
Pre-wet the wells of a Millipore MAPH NOB plate with 50 μl of 0.5% orthophosphoric acid wash buffer. Filter the liquid through on a Millipore vacuum filtration unit. Transfer the whole of the stopped reaction to the wells. Filter through. Wash twice with 200 μl of 0.5% orthophosphoric acid wash buffer. Vacuum to near dryness. Remove the plate support and allow to the filters to dry further on tissue paper. Snap the plate into an adapter for the Packard TopCount. Add 20 μl of Microscint 20 scintillant, seal with a sheet of Topseal A and count for 30 s on the TopCount.
The compounds of examples 4, 13, 21, 22, 23, 42, 47, 71, 84, 85 and 98 were tested for anti-P70S6K activity (assay as described above): […]

The next experiment deals with ROCK-II (h) (Homo sapiens, UniProt O75116). The experiment in a line: ROCK-II (h) assay (radiometric, 33P-ATP filtermat). It is filed as biochemical. Conditions: read-out: IC50 (anti-ROCK-II activity). The protocol:
ROCK-II (h) Assay Protocol
In a final reaction volume of 25 μl, ROCK-II (h) (5-10 mU) is incubated with 50 mM Tris pH 7.5, 0.1 mM EGTA, 30 μM […], 10 mM MgAcetate and [γ-^33P-ATP] (specific activity approx. 500 cpm/pmol, concentration as required). The reaction is initiated by the addition of the MgATP mix. After incubation for 40 minutes at room temperature, the reaction is stopped by the addition of 5 μl of a 3% phosphoric acid solution. 10 μl of the reaction is then spotted onto a P30 filtermat and washed three times for 5 minutes in 75 mM phosphoric acid and once in methanol prior to drying and scintillation counting.
The compounds of examples 14, 22, 23, 57, 59 and 84 were tested for anti-ROCK-II activity (assay as described above): […]

A further experiment relates to rat MM1 hepatoma cells. Conditions: cited from earlier work.
Another experiment relates to MM1 cells. Conditions: continuous delivery using osmotic pumps; syngeneic rats; cited from earlier work.
The test system of experiment [1] is isolated rabbit urinary bladder smooth muscle. Conditions: cited from earlier work.

T1 sequence (P23443 1-421 T412E limits assumed): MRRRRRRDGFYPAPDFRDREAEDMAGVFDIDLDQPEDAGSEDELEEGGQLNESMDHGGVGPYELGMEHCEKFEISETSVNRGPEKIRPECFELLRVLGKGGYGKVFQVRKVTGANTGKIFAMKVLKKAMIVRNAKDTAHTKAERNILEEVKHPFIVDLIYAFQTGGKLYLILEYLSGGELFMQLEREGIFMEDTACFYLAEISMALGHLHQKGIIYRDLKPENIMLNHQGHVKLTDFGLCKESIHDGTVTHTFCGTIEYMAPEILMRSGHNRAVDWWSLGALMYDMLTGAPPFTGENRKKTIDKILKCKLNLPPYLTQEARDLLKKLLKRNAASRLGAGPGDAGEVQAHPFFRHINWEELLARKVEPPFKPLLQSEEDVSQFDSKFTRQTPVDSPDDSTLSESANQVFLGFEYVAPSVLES
Chain of ROCK-II (h) (O75116 whole entry): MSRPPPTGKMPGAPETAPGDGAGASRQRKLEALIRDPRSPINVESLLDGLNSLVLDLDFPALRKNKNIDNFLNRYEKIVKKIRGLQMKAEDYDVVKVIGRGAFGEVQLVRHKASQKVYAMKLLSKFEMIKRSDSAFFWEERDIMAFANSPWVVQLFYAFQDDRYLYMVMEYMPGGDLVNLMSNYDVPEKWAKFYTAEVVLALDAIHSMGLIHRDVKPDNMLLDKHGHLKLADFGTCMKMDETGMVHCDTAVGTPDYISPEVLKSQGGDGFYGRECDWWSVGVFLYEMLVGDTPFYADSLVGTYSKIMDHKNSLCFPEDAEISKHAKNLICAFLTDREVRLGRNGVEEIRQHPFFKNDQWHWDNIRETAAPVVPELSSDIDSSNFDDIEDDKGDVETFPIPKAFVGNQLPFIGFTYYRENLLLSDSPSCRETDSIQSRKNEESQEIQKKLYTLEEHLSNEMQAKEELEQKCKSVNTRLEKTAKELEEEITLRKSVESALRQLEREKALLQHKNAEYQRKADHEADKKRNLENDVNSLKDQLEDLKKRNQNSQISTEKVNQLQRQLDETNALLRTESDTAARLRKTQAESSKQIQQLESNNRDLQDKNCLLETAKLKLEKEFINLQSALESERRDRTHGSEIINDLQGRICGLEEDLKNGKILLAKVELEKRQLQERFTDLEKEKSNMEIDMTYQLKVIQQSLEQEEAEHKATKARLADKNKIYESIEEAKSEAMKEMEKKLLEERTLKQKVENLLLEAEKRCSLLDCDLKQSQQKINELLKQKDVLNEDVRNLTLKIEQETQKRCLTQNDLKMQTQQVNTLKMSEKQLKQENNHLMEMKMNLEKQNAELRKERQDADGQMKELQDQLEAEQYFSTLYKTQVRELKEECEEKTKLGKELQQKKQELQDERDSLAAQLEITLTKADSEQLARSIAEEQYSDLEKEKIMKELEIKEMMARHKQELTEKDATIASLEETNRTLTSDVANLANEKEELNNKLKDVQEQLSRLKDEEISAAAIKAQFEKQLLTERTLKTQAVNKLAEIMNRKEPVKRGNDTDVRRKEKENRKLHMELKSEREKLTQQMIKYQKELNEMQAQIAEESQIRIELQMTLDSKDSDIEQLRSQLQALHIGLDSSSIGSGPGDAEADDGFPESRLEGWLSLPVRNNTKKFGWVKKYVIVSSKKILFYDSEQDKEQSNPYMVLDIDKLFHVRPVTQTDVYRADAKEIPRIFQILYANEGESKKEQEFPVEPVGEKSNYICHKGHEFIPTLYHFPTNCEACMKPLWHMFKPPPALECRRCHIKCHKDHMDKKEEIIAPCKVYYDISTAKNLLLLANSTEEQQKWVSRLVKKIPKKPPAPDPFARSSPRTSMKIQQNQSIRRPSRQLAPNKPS

On to `NCC(c1ccc(Cl)cc1)c1ccc(-c2cn[nH]c2)cc1` (stereo not drawn) [Example 4, 2-(4-Chloro-phenyl)-2-[4-(1H-pyrazol-4-yl)-phenyl]-ethylamine], for which, at P70S6 kinase (T412E), the IC50 is < 0.1 µM.

As to `NCCC(c1ccc(-c2cn[nH]c2)cc1)c1ccc(Cl)c(Cl)c1` (stereo not drawn) [Example 13, 3-(3,4-Dichloro-phenyl)-3-[4-(1H-pyrazol-4-yl)-phenyl]-propylamine], the IC50 on P70S6 kinase (T412E) was < 0.1 µM.

Regarding `Clc1ccc(C2(c3ccc(-c4cn[nH]c4)cc3)CCNCC2)cc1` [Example 14, 4-(4-Chloro-phenyl)-4-[4-(1H-pyrazol-4-yl)-phenyl]-piperidine], the IC50 at ROCK-II (h) was < 0.1 µM.

For `CNCC(c1ccc(Cl)cc1)c1ccc(-c2cn[nH]c2)cc1` (stereo not drawn) [Example 21, {2-(4-Chloro-phenyl)-2-[4-(1H-pyrazol-4-yl)-phenyl]-ethyl}-methyl-amine], at P70S6 kinase (T412E), the IC50 was < 0.1 µM.

For `CNC[C@@H](c1ccc(Cl)cc1)c1ccc(-c2cn[nH]c2)cc1` [Example 22, {2-(4-Chloro-phenyl)-2-[4-(1H-pyrazol-4-yl)-phenyl]-ethyl}-methyl-amine (R)], the IC50 at ROCK-II (h) and on P70S6 kinase (T412E) was < 0.1 µM in each case.

Take `CNC[C@H](c1ccc(Cl)cc1)c1ccc(-c2cn[nH]c2)cc1` [Example 23, {2-(4-Chloro-phenyl)-2-[4-(1H-pyrazol-4-yl)-phenyl]-ethyl}-methyl-amine (S)]: the IC50 on ROCK-II (h) and on P70S6 kinase (T412E) was < 0.1 µM in each case.

`CNCC(c1ccc(Cl)cc1)c1ccc(-c2cn[nH]c2)cc1` (stereo not drawn) [Example 42, {2-(4-Chloro-phenyl)-2-[4-(1H-pyrazol-4-yl)-phenyl]-ethyl}-methyl-amine]: the IC50 at P70S6 kinase (T412E) is < 0.1 µM.

For `CNCC(c1ccc(Oc2cnccn2)cc1)c1ccc(-c2cn[nH]c2)cc1` (stereo not drawn) [Example 47, Methyl-{2-[4-(pyrazin-2-yloxy)-phenyl]-2-[4-(1H-pyrazol-4-yl)-phenyl]-ethyl}-amine], at P70S6 kinase (T412E), the IC50 is < 0.1 µM.

With `Clc1ccc(C(c2ccc(-c3cn[nH]c3)cc2)N2CCNCC2)cc1` (stereo not drawn) [Example 57, 1-{(4-Chloro-phenyl)-[4-(1H-pyrazol-4-yl)-phenyl]-methyl}-piperazine], on ROCK-II (h), the IC50 was < 0.1 µM.

As to `CNCCC(Oc1cccc(Cl)c1)c1ccc(-c2cn[nH]c2)cc1` (stereo not drawn) [Example 59, {3-(3-Chloro-phenoxy)-3-[4-(1H-pyrazol-4-yl)-phenyl]-propyl}-methyl-amine], on ROCK-II (h), the IC50 is < 0.1 µM.

Turning to `CNCC(Oc1ccc(Cl)cc1)c1ccc(-c2cn[nH]c2)cc1` (stereo not drawn) [Example 71, {2-(4-Chloro-phenoxy)-2-[4-(1H-pyrazol-4-yl)-phenyl]-ethyl}-methyl-amine], on P70S6 kinase (T412E), the IC50 is < 0.1 µM.

As to `NCC(O)(c1ccc(Cl)cc1)c1ccc(-c2cn[nH]c2)cc1` (stereo not drawn) [Example 84, 2-Amino-1-(4-chloro-phenyl)-1-[4-(1H-pyrazol-4-yl)-phenyl]-ethanol], the IC50 at ROCK-II (h) and at P70S6 kinase (T412E) was < 0.1 µM each time.

Consider `Clc1ccc(C2(c3ccc(-c4cn[nH]c4)cc3)CCNCC2)cc1Cl` [Example 85, 4-(3,4-Dichloro-phenyl)-4-[4-(1H-pyrazol-4-yl)-phenyl]-piperidine], for which the IC50 at P70S6 kinase (T412E) is < 0.1 µM.

Take `NCC(c1ccc(-c2cn[nH]c2)cc1)c1ccc(Cl)c(Cl)c1` (stereo not drawn) [Example 98, 2-(3,4-Dichloro-phenyl)-2-[4-(1H-pyrazol-4-yl)-phenyl]-ethylamine]: the IC50 at P70S6 kinase (T412E) was < 0.1 µM.

Regarding `C[C@@H](N)[C@H]1CC[C@H](C(=O)Nc2ccncc2)CC1` [Example Y-27632], in the experiment with rat MM1 hepatoma cells, the “Rho-mediated activation of actomyosin” value is on record as “blocked” and the “invasive activity of MM1 cells” value is “blocked”. In addition, the “dissemination of MM1 cells” value with MM1 cells is given as “considerably reduced”. The bethanechol-evoked contractions entry in experiment [1] is “attenuates”.

What is called IC50 is the concentration at which inhibition is half-maximal.
